Results on two molecules are retold here after patent US20160045497A1, “COMPLEX PREPARATION INCLUDING VALSARTAN AND ROSUVASTATIN CALCIUM AND MANUFACTURING METHOD THEREFOR” (LG LIFE SCIENCES LTD., priority 2013, published 2016).

In assay [1] the test system is patients with hypertension and hyperlipidemia. In words: Clinical test of combined vs single administration: change of sitDBP after 8 weeks. The class given is in vivo, human. The following applies: valsartan 160 mg and/or rosuvastatin 20 mg. The procedure:
(§1) The following tests were performed for patients with hypertension and hyperlipidemia to evaluate the efficacy and safety of the combined administration of 160 mg of valsartan and 20 mg of rosuvastatin in comparison with single administration of each of them.
(§2) A screening inspection was conducted for the subjects, who were 20- to 80-year-old patients suffering from hypertension and hyperlipidemia, to ascertain whether they met the selection/exclusion criteria, and administration of the drugs for treating hypertension and hyperlipidemia, which the subjects had taken, was stopped. All the patients who passed the screening inspection were subjected to Therapeutic Lifestyle Change (TLC) for 4 to 6 weeks, and their blood pressure and fasting serum lipid level were measured finally in the measurement 2 (0 week) visit. If the measured values were recognized as suitable to the following criteria, the patient was randomly assigned to one group of the four (4) treatment groups. […]
(§3) According to random assignment, each subject was assigned with the same probability to one of a total of four groups consisting of one combined administration group (group 1), two single administration groups (groups 2 and 3) and one placebo group (group 4) as shown in the following table. […] The visit window was±4 days at each visit, and the timing of visit was determined with the standard of 0 week. […]

The test system is the same in assay [2]. Description: Clinical test of combined vs single administration: change of LDL-C after 8 weeks. The following applies: valsartan 160 mg and/or rosuvastatin 20 mg. The class given is in vivo, human. The procedure:
as §1, §2, §3

Take `CC(C)c1nc(N(C)S(C)(=O)=O)nc(-c2ccc(F)cc2)c1/C=C/[C@@H](O)C[C@@H](O)CC(=O)O` [Example R20, rosuvastatin]: in assay [1], the “average amount of change of sitDBP from the baseline (Least Square Mean)” value is reported as −3.64 mmHg. Moreover, the “average rate of change of LDL-C from the baseline (Least Square Mean)” value in assay [2] is reported as −47.27%.

With `CCCCC(=O)N(Cc1ccc(-c2ccccc2-c2nnn[nH]2)cc1)[C@H](C(=O)O)C(C)C` [Example V160, valsartan], the “average amount of change of sitDBP from the baseline (Least Square Mean)” value in assay [1] is reported as −7.26 mmHg. The “average rate of change of LDL-C from the baseline (Least Square Mean)” value in assay [2] is on record as −4.52%.
